Reference: paper PMC12102759 (Protein Science : A Publication of the Protein Society, 2025)
Like-named read-outs stand apart in the source and are kept apart here.

Tested on: G3BP1 NFT2
Type: binding, human
Conditions: library DMS-CoV, bait G3BP1 NFT2, prey N, listed as aa = residue placed at this position, column sums to 1

Sequence: APRITFGGPSDSTGSN S12R (APRITFGGPSDRTGSN)
- DMS PSSM value, S (position 12) (peptide APRITFGGPSDSTGSN): 0

Sequence: RNAPRITFGGPSDSTG P4T (RNATRITFGGPSDSTG)
- DMS PSSM value, P (position 4) (peptide RNAPRITFGGPSDSTG): 0

Sequence: RNAPRITFGGPSDSTG P11L (RNAPRITFGGLSDSTG)
- DMS PSSM value, P (position 11) (peptide RNAPRITFGGPSDSTG): 0

Sequence: RNAPRITFGGPSDSTG P4H (RNAHRITFGGPSDSTG)
- DMS PSSM value, P (position 4) (peptide RNAPRITFGGPSDSTG): 0

Sequence: RNAPRITFGGPSDSTG T15N (RNAPRITFGGPSDSNG)
- DMS PSSM value, T (position 15) (peptide RNAPRITFGGPSDSTG): 0

Sequence: APRITFGGPSDSTGSN I4L (APRLTFGGPSDSTGSN)
- DMS PSSM value, I (position 4) (peptide APRITFGGPSDSTGSN): 0

Sequence: RNAPRITFGGPSDSTG D13R (RNAPRITFGGPSRSTG)
- DMS PSSM value, D (position 13) (peptide RNAPRITFGGPSDSTG): 0

Sequence: RNAPRITFGGPSDSTG P11V (RNAPRITFGGVSDSTG)
- DMS PSSM value, P (position 11) (peptide RNAPRITFGGPSDSTG): 0

Sequence: APRITFGGPSDSTGSN S15H (APRITFGGPSDSTGHN)
- DMS PSSM value, S (position 15) (peptide APRITFGGPSDSTGSN): 0.01115

Sequence: APRITFGGPSDSTGSN P2M (AMRITFGGPSDSTGSN)
- DMS PSSM value, P (position 2) (peptide APRITFGGPSDSTGSN): 0

Sequence: RNAPRITFGGPSDSTG R5V (RNAPVITFGGPSDSTG)
- DMS PSSM value, R (position 5) (peptide RNAPRITFGGPSDSTG): 0.006458

Sequence: RNAPRITFGGPSDSTG T15E (RNAPRITFGGPSDSEG)
- DMS PSSM value, T (position 15) (peptide RNAPRITFGGPSDSTG): 0

Sequence: APRITFGGPSDSTGSN T5W (APRIWFGGPSDSTGSN)
- DMS PSSM value, T (position 5) (peptide APRITFGGPSDSTGSN): 0

Sequence: RNAPRITFGGPSDSTG P11I (RNAPRITFGGISDSTG)
- DMS PSSM value, P (position 11) (peptide RNAPRITFGGPSDSTG): 0

Sequence: APRITFGGPSDSTGSN R3E (APEITFGGPSDSTGSN)
- DMS PSSM value, R (position 3) (peptide APRITFGGPSDSTGSN): 0.01584

Sequence: RNAPRITFGGPSDSTG P4F (RNAFRITFGGPSDSTG)
- DMS PSSM value, P (position 4) (peptide RNAPRITFGGPSDSTG): 0

Sequence: APRITFGGPSDSTGSN R3W (APWITFGGPSDSTGSN)
- DMS PSSM value, R (position 3) (peptide APRITFGGPSDSTGSN): 0.01451

Sequence: APRITFGGPSDSTGSN G8V (APRITFGVPSDSTGSN)
- DMS PSSM value, G (position 8) (peptide APRITFGGPSDSTGSN): 0.0004532

Sequence: APRITFGGPSDSTGSN A1M (MPRITFGGPSDSTGSN)
- DMS PSSM value, A (position 1) (peptide APRITFGGPSDSTGSN): 0.03133

Sequence: APRITFGGPSDSTGSN S15Q (APRITFGGPSDSTGQN)
- DMS PSSM value, S (position 15) (peptide APRITFGGPSDSTGSN): 0.01454

Sequence: APRITFGGPSDSTGSN G14P (APRITFGGPSDSTPSN)
- DMS PSSM value, G (position 14) (peptide APRITFGGPSDSTGSN): 0.002211

Sequence: APRITFGGPSDSTGSN S15Y (APRITFGGPSDSTGYN)
- DMS PSSM value, S (position 15) (peptide APRITFGGPSDSTGSN): 0.1419

Sequence: APRITFGGPSDSTGSN G14F (APRITFGGPSDSTFSN)
- DMS PSSM value, G (position 14) (peptide APRITFGGPSDSTGSN): 0.04037

Sequence: APRITFGGPSDSTGSN D11L (APRITFGGPSLSTGSN)
- DMS PSSM value, D (position 11) (peptide APRITFGGPSDSTGSN): 0.001888

Sequence: APRITFGGPSDSTGSN P9W (APRITFGGWSDSTGSN)
- DMS PSSM value, P (position 9) (peptide APRITFGGPSDSTGSN): 0

Sequence: APRITFGGPSDSTGSN T13W (APRITFGGPSDSWGSN)
- DMS PSSM value, T (position 13) (peptide APRITFGGPSDSTGSN): 0

Sequence: RNAPRITFGGPSDSTG G16Y (RNAPRITFGGPSDSTY)
- DMS PSSM value, G (position 16) (peptide RNAPRITFGGPSDSTG): 0

Sequence: APRITFGGPSDSTGSN D11N (APRITFGGPSNSTGSN)
- DMS PSSM value, D (position 11) (peptide APRITFGGPSDSTGSN): 0.02182

Sequence: APRITFGGPSDSTGSN P2W (AWRITFGGPSDSTGSN)
- DMS PSSM value, P (position 2) (peptide APRITFGGPSDSTGSN): 0

Sequence: RNAPRITFGGPSDSTG D13W (RNAPRITFGGPSWSTG)
- DMS PSSM value, D (position 13) (peptide RNAPRITFGGPSDSTG): 0

Sequence: RNAPRITFGGPSDSTG N2L (RLAPRITFGGPSDSTG)
- DMS PSSM value, N (position 2) (peptide RNAPRITFGGPSDSTG): 0

Sequence: RNAPRITFGGPSDSTG S12K (RNAPRITFGGPKDSTG)
- DMS PSSM value, S (position 12) (peptide RNAPRITFGGPSDSTG): 0

Sequence: APRITFGGPSDSTGSN T13V (APRITFGGPSDSVGSN)
- DMS PSSM value, T (position 13) (peptide APRITFGGPSDSTGSN): 0.7895

Sequence: RNAPRITFGGPSDSTG T7A (RNAPRIAFGGPSDSTG)
- DMS PSSM value, T (position 7) (peptide RNAPRITFGGPSDSTG): 0

Sequence: APRITFGGPSDSTGSN A1E (EPRITFGGPSDSTGSN)
- DMS PSSM value, A (position 1) (peptide APRITFGGPSDSTGSN): 0.1097

Sequence: APRITFGGPSDSTGSN P9R (APRITFGGRSDSTGSN)
- DMS PSSM value, P (position 9) (peptide APRITFGGPSDSTGSN): 0

Sequence: APRITFGGPSDSTGSN A1D (DPRITFGGPSDSTGSN)
- DMS PSSM value, A (position 1) (peptide APRITFGGPSDSTGSN): 0.5313

Sequence: APRITFGGPSDSTGSN T13L (APRITFGGPSDSLGSN)
- DMS PSSM value, T (position 13) (peptide APRITFGGPSDSTGSN): 0.003677

Sequence: APRITFGGPSDSTGSN S12H (APRITFGGPSDHTGSN)
- DMS PSSM value, S (position 12) (peptide APRITFGGPSDSTGSN): 0.0346

Sequence: RNAPRITFGGPSDSTG G10E (RNAPRITFGEPSDSTG)
- DMS PSSM value, G (position 10) (peptide RNAPRITFGGPSDSTG): 0

Sequence: APRITFGGPSDSTGSN R3L (APLITFGGPSDSTGSN)
- DMS PSSM value, R (position 3) (peptide APRITFGGPSDSTGSN): 0.2826

Sequence: RNAPRITFGGPSDSTG R5S (RNAPSITFGGPSDSTG)
- DMS PSSM value, R (position 5) (peptide RNAPRITFGGPSDSTG): 0.002286

Sequence: RNAPRITFGGPSDSTG F8L (RNAPRITLGGPSDSTG)
- DMS PSSM value, F (position 8) (peptide RNAPRITFGGPSDSTG): 0

Sequence: RNAPRITFGGPSDSTG R5T (RNAPTITFGGPSDSTG)
- DMS PSSM value, R (position 5) (peptide RNAPRITFGGPSDSTG): 0.001368

Sequence: APRITFGGPSDSTGSN P2K (AKRITFGGPSDSTGSN)
- DMS PSSM value, P (position 2) (peptide APRITFGGPSDSTGSN): 0

Sequence: APRITFGGPSDSTGSN S10A (APRITFGGPADSTGSN)
- DMS PSSM value, S (position 10) (peptide APRITFGGPSDSTGSN): 0.0189

Sequence: RNAPRITFGGPSDSTG N2Q (RQAPRITFGGPSDSTG)
- DMS PSSM value, N (position 2) (peptide RNAPRITFGGPSDSTG): 0

Sequence: RNAPRITFGGPSDSTG T7L (RNAPRILFGGPSDSTG)
- DMS PSSM value, T (position 7) (peptide RNAPRITFGGPSDSTG): 0

Sequence: APRITFGGPSDSTGSN A1K (KPRITFGGPSDSTGSN)
- DMS PSSM value, A (position 1) (peptide APRITFGGPSDSTGSN): 0
